#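 Growth conditions: 96-well plates. Treatment: test compound, 48 hours, 5 concentrations. Analysis: linear interpolation between bracketing concentrations; unreached endpoints set to highest concentration. At the TGI there is no net growth.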
# Key:
# Assay in all cases: NCI-60 cell line screen, 48 h
# MCF7 breast = test system: MCF7 breast
# NCI-H460 lung = test system: NCI-H460 lung
# HS 578T breast = test system: HS 578T breast
# UO-31 renal = test system: UO-31 renal
# NCI/ADR-RES ovarian = test system: NCI/ADR-RES ovarian
# OVCAR-8 ovarian = test system: OVCAR-8 ovarian
# RXF 393 renal = test system: RXF 393 renal
# BT-549 breast = test system: BT-549 breast
# HCT-15 colon = test system: HCT-15 colon
# T-47D breast = test system: T-47D breast
# PC-3 prostate = test system: PC-3 prostate
# SW-620 colon = test system: SW-620 colon
# SK-MEL-28 melanoma = test system: SK-MEL-28 melanoma
# OVCAR-5 ovarian = test system: OVCAR-5 ovarian
# KM12 colon = test system: KM12 colon
# RPMI-8226 leukemia = test system: RPMI-8226 leukemia
# HCT-116 colon = test system: HCT-116 colon
# SF-539 CNS = test system: SF-539 CNS
# CCRF-CEM leukemia = test system: CCRF-CEM leukemia
# SK-MEL-5 melanoma = test system: SK-MEL-5 melanoma
# UACC-62 melanoma = test system: UACC-62 melanoma
# SNB-75 CNS = test system: SNB-75 CNS
# MOLT-4 leukemia = test system: MOLT-4 leukemia
# SNB-19 CNS = test system: SNB-19 CNS
# SK-OV-3 ovarian = test system: SK-OV-3 ovarian
# CAKI-1 renal = test system: CAKI-1 renal
# SF-295 CNS = test system: SF-295 CNS
# HL-60(TB) leukemia = test system: HL-60(TB) leukemia
# SF-268 CNS = test system: SF-268 CNS
# LOX IMVI melanoma = test system: LOX IMVI melanoma
# HT29 colon = test system: HT29 colon
# NCI-H522 lung = test system: NCI-H522 lung
# HOP-62 NSCLC = test system: HOP-62 NSCLC
# A549 NSCLC = test system: A549 NSCLC
# MDA-N = test system: MDA-N
# MDA-MB-231 breast = test system: MDA-MB-231 breast
# UACC-257 melanoma = test system: UACC-257 melanoma
# SN12C renal = test system: SN12C renal
# EKVX NSCLC = test system: EKVX NSCLC
# HCC-2998 colon = test system: HCC-2998 colon
# K-562 leukemia = test system: K-562 leukemia
# HOP-92 NSCLC = test system: HOP-92 NSCLC
# 786-0 renal = test system: 786-0 renal
# IGROV1 ovarian = test system: IGROV1 ovarian
# NCI-H23 lung = test system: NCI-H23 lung
# MDA-MB-435 = test system: MDA-MB-435
# DU-145 prostate = test system: DU-145 prostate
# MALME-3M melanoma = test system: MALME-3M melanoma
# A498 renal = test system: A498 renal
# SR leukemia = test system: SR leukemia
# ACHN renal = test system: ACHN renal
# U251 CNS = test system: U251 CNS
# OVCAR-4 ovarian = test system: OVCAR-4 ovarian
# SK-MEL-2 melanoma = test system: SK-MEL-2 melanoma
# COLO 205 colon = test system: COLO 205 colon
# TK-10 renal = test system: TK-10 renal
# M14 melanoma = test system: M14 melanoma
# OVCAR-3 ovarian = test system: OVCAR-3 ovarian
# NCI-H226 lung = test system: NCI-H226 lung
# M19-MEL melanoma = test system: M19-MEL melanoma
# DMS 273 small cell lung = test system: DMS 273 small cell lung
# SNB-78 CNS = test system: SNB-78 CNS
# DMS 114 small cell lung = test system: DMS 114 small cell lung
# KM20L2 colon = test system: KM20L2 colon
# DLD-1 colon = test system: DLD-1 colon
# HOP-18 NSCLC = test system: HOP-18 NSCLC
# LXFL 529 NSCLC = test system: LXFL 529 NSCLC
smiles,measurement,setting,value
Cn1c(SCc2c[nH]c3ccccc23)nnc1-c1ccc(Cl)cc1Cl,TGI,MCF7 breast,84.9 µM
same,TGI,NCI-H460 lung,26.3 µM
same,TGI,HS 578T breast,> 100 µM
same,TGI,UO-31 renal,82.9 µM
same,TGI,NCI/ADR-RES ovarian,27.3 µM
same,TGI,OVCAR-8 ovarian,> 100 µM
same,TGI,RXF 393 renal,32.5 µM
same,TGI,BT-549 breast,87.5 µM
same,TGI,HCT-15 colon,> 100 µM
same,TGI,T-47D breast,43.2 µM
same,TGI,PC-3 prostate,36.5 µM
same,TGI,SW-620 colon,> 100 µM
same,TGI,SK-MEL-28 melanoma,> 100 µM
same,TGI,OVCAR-5 ovarian,86.7 µM
same,TGI,KM12 colon,25.2 µM
same,TGI,RPMI-8226 leukemia,27.1 µM
same,TGI,HCT-116 colon,93 µM
same,TGI,SF-539 CNS,17.7 µM
same,TGI,CCRF-CEM leukemia,45.4 µM
same,TGI,SK-MEL-5 melanoma,27.5 µM
same,TGI,UACC-62 melanoma,39.3 µM
same,TGI,SNB-75 CNS,25.9 µM
same,TGI,MOLT-4 leukemia,27.5 µM
same,TGI,SNB-19 CNS,61.7 µM
same,TGI,SK-OV-3 ovarian,59.4 µM
same,TGI,CAKI-1 renal,> 100 µM
same,TGI,SF-295 CNS,27.2 µM
same,TGI,HL-60(TB) leukemia,25.6 µM
same,TGI,SF-268 CNS,> 100 µM
same,TGI,LOX IMVI melanoma,20 µM
same,TGI,HT29 colon,35.5 µM
same,TGI,NCI-H522 lung,45.9 µM
same,TGI,HOP-62 NSCLC,21.4 µM
same,TGI,A549 NSCLC,48.5 µM
same,TGI,MDA-N,78.9 µM
same,TGI,MDA-MB-231 breast,66.3 µM
same,TGI,UACC-257 melanoma,56.1 µM
same,TGI,SN12C renal,47.5 µM
same,TGI,EKVX NSCLC,49.6 µM
same,TGI,HCC-2998 colon,26.1 µM
same,TGI,K-562 leukemia,24.9 µM
same,TGI,HOP-92 NSCLC,53 µM
same,TGI,786-0 renal,68.6 µM
same,TGI,IGROV1 ovarian,67.2 µM
same,TGI,NCI-H23 lung,69.9 µM
same,TGI,MDA-MB-435,12 µM
same,TGI,DU-145 prostate,78.5 µM
same,TGI,MALME-3M melanoma,45.8 µM
same,TGI,A498 renal,86.3 µM
same,TGI,SR leukemia,16.6 µM
same,TGI,ACHN renal,96.8 µM
same,TGI,U251 CNS,38.1 µM
same,TGI,OVCAR-4 ovarian,34.2 µM
same,TGI,SK-MEL-2 melanoma,36.2 µM
same,TGI,COLO 205 colon,27.4 µM
same,TGI,TK-10 renal,47.2 µM
same,TGI,M14 melanoma,38.1 µM
same,TGI,OVCAR-3 ovarian,35.1 µM
Cn1c(CC(O)c2nc3ccccc3n2C)nc2ccccc21 (configuration not stated),TGI,MCF7 breast,> 47.2 µM
same,TGI,NCI-H460 lung,> 46.9 µM
same,TGI,HS 578T breast,> 24.2 µM
same,TGI,UO-31 renal,> 9.39 µM
same,TGI,NCI/ADR-RES ovarian,> 67.9 µM
same,TGI,OVCAR-8 ovarian,> 47.8 µM
same,TGI,RXF 393 renal,> 39.4 µM
same,TGI,BT-549 breast,> 63.2 µM
same,TGI,HCT-15 colon,> 49.5 µM
same,TGI,T-47D breast,> 16.7 µM
same,TGI,PC-3 prostate,> 58.8 µM
same,TGI,NCI-H226 lung,> 72.3 µM
same,TGI,SW-620 colon,> 47 µM
same,TGI,SK-MEL-28 melanoma,> 60.9 µM
same,TGI,OVCAR-5 ovarian,> 74.3 µM
same,TGI,KM12 colon,> 100 µM
same,TGI,RPMI-8226 leukemia,> 19.1 µM
same,TGI,HCT-116 colon,> 34.9 µM
same,TGI,SF-539 CNS,> 56 µM
same,TGI,CCRF-CEM leukemia,17.3 µM
same,TGI,SK-MEL-5 melanoma,> 42.8 µM
same,TGI,UACC-62 melanoma,> 61.5 µM
same,TGI,SNB-75 CNS,> 100 µM
same,TGI,MOLT-4 leukemia,> 27.9 µM
same,TGI,SNB-19 CNS,> 87.7 µM
same,TGI,SK-OV-3 ovarian,> 45.2 µM
same,TGI,CAKI-1 renal,> 100 µM
same,TGI,SF-295 CNS,> 100 µM
same,TGI,HL-60(TB) leukemia,4.13 µM
same,TGI,SF-268 CNS,> 28.9 µM
same,TGI,LOX IMVI melanoma,> 47.7 µM
same,TGI,HT29 colon,> 54.3 µM
same,TGI,NCI-H522 lung,> 8.21 µM
same,TGI,HOP-62 NSCLC,> 19.1 µM
same,TGI,A549 NSCLC,> 100 µM
same,TGI,MDA-N,> 100 µM
same,TGI,MDA-MB-231 breast,> 53.7 µM
same,TGI,UACC-257 melanoma,> 47.8 µM
same,TGI,SN12C renal,> 57.9 µM
same,TGI,EKVX NSCLC,> 100 µM
same,TGI,HCC-2998 colon,> 100 µM
same,TGI,K-562 leukemia,> 47.9 µM
same,TGI,HOP-92 NSCLC,> 38.7 µM
same,TGI,786-0 renal,> 68.6 µM
same,TGI,IGROV1 ovarian,> 40.6 µM
same,TGI,NCI-H23 lung,> 48.6 µM
same,TGI,MDA-MB-435,> 44.4 µM
same,TGI,DU-145 prostate,> 21.7 µM
same,TGI,MALME-3M melanoma,> 35.5 µM
same,TGI,A498 renal,> 51.1 µM
same,TGI,SR leukemia,> 100 µM
same,TGI,ACHN renal,> 33.9 µM
same,TGI,U251 CNS,> 48.8 µM
same,TGI,OVCAR-4 ovarian,> 30.1 µM
same,TGI,SK-MEL-2 melanoma,> 58.5 µM
same,TGI,COLO 205 colon,> 35.8 µM
same,TGI,TK-10 renal,> 36.4 µM
same,TGI,M14 melanoma,> 49.8 µM
same,TGI,OVCAR-3 ovarian,> 19.4 µM
CCCC(=O)OC1C(C2COC(C)(C)O2)OC2OC(C)(C)OC21 (configuration not stated),TGI,NCI-H460 lung,> 100 µM
same,TGI,UO-31 renal,> 100 µM
same,TGI,OVCAR-8 ovarian,> 100 µM
same,TGI,RXF 393 renal,> 100 µM
same,TGI,SK-MEL-28 melanoma,> 100 µM
same,TGI,OVCAR-5 ovarian,> 100 µM
same,TGI,KM12 colon,> 100 µM
same,TGI,HCT-116 colon,> 100 µM
same,TGI,CCRF-CEM leukemia,> 100 µM
same,TGI,UACC-62 melanoma,> 100 µM
same,TGI,MOLT-4 leukemia,> 100 µM
same,TGI,SNB-19 CNS,> 100 µM
same,TGI,SK-OV-3 ovarian,> 100 µM
same,TGI,SF-295 CNS,> 100 µM
same,TGI,HL-60(TB) leukemia,> 100 µM
same,TGI,HT29 colon,> 100 µM
same,TGI,NCI-H522 lung,> 100 µM
same,TGI,HOP-62 NSCLC,> 100 µM
same,TGI,M19-MEL melanoma,> 100 µM
same,TGI,UACC-257 melanoma,> 100 µM
same,TGI,EKVX NSCLC,> 100 µM
same,TGI,K-562 leukemia,> 100 µM
same,TGI,DMS 273 small cell lung,> 100 µM
same,TGI,HOP-92 NSCLC,> 100 µM
same,TGI,IGROV1 ovarian,> 100 µM
same,TGI,NCI-H23 lung,> 100 µM
same,TGI,SNB-78 CNS,> 100 µM
same,TGI,A498 renal,> 100 µM
same,TGI,SR leukemia,> 100 µM
same,TGI,DMS 114 small cell lung,> 100 µM
same,TGI,ACHN renal,> 100 µM
same,TGI,U251 CNS,> 100 µM
same,TGI,TK-10 renal,> 100 µM
same,TGI,M14 melanoma,> 100 µM
same,TGI,KM20L2 colon,> 100 µM
Clc1cccc(C2SCc3nc4ccccc4n32)c1 (configuration not stated),TGI,NCI-H460 lung,> 100 µM
same,TGI,OVCAR-8 ovarian,65.1 µM
same,TGI,RXF 393 renal,41.7 µM
same,TGI,HCT-15 colon,44 µM
same,TGI,NCI-H226 lung,33.7 µM
same,TGI,SW-620 colon,> 100 µM
same,TGI,SK-MEL-28 melanoma,46.2 µM
same,TGI,OVCAR-5 ovarian,95.6 µM
same,TGI,KM12 colon,50.5 µM
same,TGI,RPMI-8226 leukemia,> 100 µM
same,TGI,SF-539 CNS,48.2 µM
same,TGI,CCRF-CEM leukemia,> 100 µM
same,TGI,UACC-62 melanoma,36.5 µM
same,TGI,SNB-75 CNS,21.3 µM
same,TGI,MOLT-4 leukemia,> 100 µM
same,TGI,SK-OV-3 ovarian,52.7 µM
same,TGI,CAKI-1 renal,> 100 µM
same,TGI,SF-295 CNS,> 100 µM
same,TGI,HL-60(TB) leukemia,31.6 µM
same,TGI,SF-268 CNS,> 100 µM
same,TGI,LOX IMVI melanoma,30.8 µM
same,TGI,HT29 colon,67.2 µM
same,TGI,NCI-H522 lung,29.5 µM
same,TGI,DLD-1 colon,34.1 µM
same,TGI,HOP-62 NSCLC,55.9 µM
same,TGI,M19-MEL melanoma,58.4 µM
same,TGI,A549 NSCLC,> 100 µM
same,TGI,SN12C renal,28.6 µM
same,TGI,EKVX NSCLC,52.4 µM
same,TGI,K-562 leukemia,> 100 µM
same,TGI,HOP-92 NSCLC,30.4 µM
same,TGI,IGROV1 ovarian,70 µM
same,TGI,NCI-H23 lung,51.4 µM
same,TGI,SNB-78 CNS,87.5 µM
same,TGI,HOP-18 NSCLC,47.5 µM
same,TGI,LXFL 529 NSCLC,> 100 µM
same,TGI,MALME-3M melanoma,62.1 µM
same,TGI,SR leukemia,56.3 µM
same,TGI,ACHN renal,99.2 µM
same,TGI,U251 CNS,33 µM
same,TGI,OVCAR-4 ovarian,> 100 µM
same,TGI,COLO 205 colon,15.1 µM
same,TGI,TK-10 renal,63.9 µM
same,TGI,M14 melanoma,50.5 µM
same,TGI,OVCAR-3 ovarian,29.1 µM

# From PubChem BioAssay (NCI)
